Laboratory results as given in patent US10428074B2, “Pyrrole heteroaryl ring derivative and method of use thereof” (Jiangsu Hengrui Medicine Co., Ltd., priority 2011, dated 2019).

test system: T cells; assay: Proliferation inhibition assay on T cells (PBMC, anti-CD3, IL-2); type: cell-based, human; settings: Homo sapiens, T-cell, 72 h, IL-2 10 ng/mL
Description: The following in vitro assay is to determine the activity of the compounds of the present invention for inhibiting the proliferation of T cells.
The activity is represented by the IC50 value.
The general procedures of the assay are given as follows: first, the PBMC cell line (purchased from Shanghai Blood Center) was centrifuged, the supernatant was removed, and the cells counted. […] Then, the cells were washed 3 times, resuspended, diluted to 2×10^6/mL, and then mixed with recombinant human IL-2 (purchased from Peprotech, Catalog Number: 200-02) to a concentration of 10 ng/mL, and cultured for another 3 days. The cells were washed again 3 times, and diluted to 5×10^5/mL. 80 μL of the cells were seeded in each well of a 96-well cell culture plate. […] To he control wells, 10 μL culture medium were added. The plate was placed in an incubator. After incubating for 1 hr, negative control wells were mixed with 10 μL of culture medium, and the rest of the wells were mixed with IL-2 to a concentration of 10 ng/mL, and incubated continuously for 72 hours. […] IC50 values were calculated from the data of inhibition rates at various concentrations of the test compounds.

| SMILES | IC50 [nM] |
| --- | --- |
| CN(c1ncnc2[nH]ccc12)[C@H]1C[C@@H]2CN(C(=O)CO)C[C@@H]2C1 [Example 6, 2-Hydroxy-1-((3aR,5S,6aS)-5-(methyl(7H-pyrrolo[2,3-d]pyrimidin-4-yl)amino)hexahydrocyclopenta[c]pyrrol-2(1H)-yl)ethanone] | 414 |
| CN(c1ncnc2[nH]ccc12)[C@H]1C[C@@H]2CN(S(=O)(=O)C3CC3)C[C@@H]2C1 [Example 15, N-((3aR,5S,6aS)-2-(Cyclopropylsulfonyl)octahydrocyclopenta[c]pyrrol-5-yl)-N-methyl-7H-pyrrolo[2,3-d]pyrimidin-4-amine] | 853 |
| CN(c1ncnc2[nH]ccc12)[C@H]1C[C@@H]2CN(C(=O)CNS(C)(=O)=O)C[C@@H]2C1 [Example 21, N-(2-((3aR,5S,6aS)-5-(Methyl(7H-pyrrolo[2,3-d]pyrimidin-4-yl)amino)hexahydrocyclopenta[c]pyrrol-2(1H)-yl)-2-oxoethyl)methanesulfonamide] | 892 |
| COC(=O)CN1C[C@H]2C[C@H](N(C)c3ncnc4[nH]ccc34)C[C@H]2C1 [Example 24, Methyl 2-((3aR,5S,6aS)-5-(methyl(7H-pyrrolo[2,3-d]pyrimidin-4-yl)amino)hexahydrocyclopenta[c]pyrrol-2(1H)-yl)acetate] | 851 |
| CN(c1ncnc2[nH]ccc12)[C@H]1C[C@@H]2CN(CCC#N)C[C@@H]2C1 [Example 27, 3-((3 aR,5S,6aS)-5-(Methyl(7H-pyrrolo[2,3-d]pyrimidin-4-yl)amino)hexahydrocyclopenta[c]pyrrol-2(1H)-yl)propanenitrile] | 253 |
| CN(c1ncnc2[nH]ccc12)[C@H]1C[C@H]2CNC(=O)C[C@H]2C1 [Example 40, (4aR,6R,7aR)-6-(Methyl(7H-pyrrolo[2,3-d]pyrimidin-4-yl)amino) hexahydro-1H-cyclopenta[c]pyridin-3(2H)-one] | 48 |
| CN(c1ncnc2[nH]ccc12)[C@H]1C[C@@H]2CN(CC(F)(F)F)C[C@@H]2C1 [Example 56, N-methyl-N-((3aR,5S,6aS)-2-(2,2,2-trifluoroethyl)octahydrocyclopenta [c]pyrrol-5-yl)-7H-pyrrolo[2,3-d]pyrimidin-4-amine] | 119 |
| CN(c1ncnc2[nH]ccc12)[C@@H]1C[C@@H]2CN(CCC#N)C[C@@H]2C1 [Example 68, 3-((3aR,5R,6aS)-5-(methyl(7H-pyrrolo[2,3-d]pyrimidin-4-yl)amino)hexahydrocyclopenta[c]pyrrol-2(1H)-yl)propanenitrile] | 824 |
| CN(c1ncnc2[nH]ccc12)[C@@H]1CC2CNC(=O)CC2C1 (stereo partly drawn) [Example 148, (6S)-6-(methyl(7H-pyrrolo[2,3-d]pyrimidin-4-yl)amino) hexahydro-1H-cyclopenta[c] pyridin-3(2H)-one] | 48 |

same assay, conditions: Homo sapiens, T-cell; IL-2 10 ng/mL, 72 hours

| SMILES | IC50 [nM] |
| --- | --- |
| CN(c1ncnc2[nH]ccc12)[C@H]1C[C@@H]2CN(C(=O)CC#N)C[C@@H]2C1 [Example 8, 3-((3 aR,5S,6aS)-5-(Methyl(7H-pyrrolo[2,3-d]pyrimidin-4-yl)amino)hexahydrocyclopenta[c]pyrrol-2(1H)-yl)-3-oxopropanenitrile] | 460 |
| CC(=O)N1C[C@H]2C[C@H](N(C)c3ncnc4[nH]ccc34)C[C@H]2C1 [Example 11, 1-((3aR,5S,6aS)-5-(Methyl(7H-pyrrolo[2,3-d]pyrimidin-4-yl)amino)hexahydrocyclopenta[c]pyrrol-2(1H)-yl)ethanone] | 705 |
| CN(c1ncnc2[nH]ccc12)[C@H]1C[C@@H]2CN(C(=O)C3CC3)C[C@@H]2C1 [Example 13, Cyclopropyl((3aR,5S,6aS)-5-(methyl(7H-pyrrolo[2,3-d]pyrimidin-4-yl)amino)hexahydrocyclopenta[c]pyrrol-2(1H)-yl)methanone] | 754 |
| CN(c1ncnc2[nH]ccc12)[C@H]1C[C@@H]2CN(C(=O)CCC#N)C[C@@H]2C1 [Example 22, 4-((3aR,5S,6aS)-5-(Methyl(7H-pyrrolo[2,3-d]pyrimidin-4-yl)amino)hexahydrocyclopenta[c]pyrrol-2(1H)-yl)-4-oxobutanenitrile] | 281 |
| CN(c1ncnc2[nH]ccc12)[C@@H]1C[C@@H]2CN(C(=O)CO)C[C@@H]2C1 [Example 23, 2-Hydroxy-1-((3aR,5R,6aS)-5-(methyl(7H-pyrrolo[2,3-d]pyrimidin-4-yl)amino)hexahydrocyclopenta[c]pyrrol-2(1H)-yl)ethanone] | 543 |
| CCC(=O)N1C[C@H]2C[C@H](N(C)c3ncnc4[nH]ccc34)C[C@H]2C1 [Example 84, 1-((3aR,5S,6aS)-5-(methyl(7H-pyrrolo[2,3-d]pyrimidin-4-yl)amino)hexahydrocyclopenta[c]pyrrol-2(1H)-yl)propan-1-one] | 509 |
| COc1cncc(NC(=O)N2C[C@H]3C[C@H](N(C)c4ncnc5[nH]ccc45)C[C@H]3C2)c1 [Example 109, (3aR,5S,6aS)-N-(5-methoxypyridin-3-yl)-5-(methyl(7H-pyrrolo[2,3-d]pyrimidin-4-yl)amino)hexahydrocyclopenta[c] pyrrole-2(1H)-carboxamide] | 762 |
| CCc1nsc(NC(=O)N2C[C@H]3C[C@H](N(C)c4ncnc5[nH]ccc45)C[C@H]3C2)n1 [Example 121, (3aR,5S,6aS)-N-(3-ethyl-1,2,4-thiadiazol-5-yl)-5-(methyl(7H-pyrrolo[2,3-d]pyrimidin-4-yl)amino)hexahydrocyclopenta[c] pyrrole-2(1H)-carboxamide] | 24 |
| CN(c1ncnc2[nH]ccc12)[C@@H]1C[C@@H]2CCN(C(=O)Nc3nncs3)C[C@@H]2C1 [Example 150, (4aS,6R,7aR)-6-(methyl(7H-pyrrolo[2,3-d]pyrimidin-4-yl)amino)-N-(1,3,4-thiadiazol-2-yl)hexahydro-1H-cyclopenta[c]pyridine-2(3H)-carboxamide] | 221 |

same assay, conditions: IL-2 10 ng/mL, 72 hours; read-out: IC50(T cell)

| SMILES | IC50 [nM] |
| --- | --- |
| CN(c1ncnc2[nH]ccc12)[C@@H]1C[C@H]2CN(C(=O)CO)C[C@@]2(C)C1 (racemic) [Example 14, 2-Hydroxy-1-((3aS,5R,6aR/3aS,5R,6aR)-3a-methyl-5-(methyl(7H-pyrrolo[2,3-d]pyrimidin-4-yl)amino)hexahydrocyclopenta[c]pyrrol-2(1H)-yl)ethanone] | 712 |

test system: human erythroid leukemia cell line TF-1; assay: Proliferation inhibition assay on TF-1 cells mediated by IL-4; type: cell-based; settings: 10 ng/mL IL-4, 72 hours
Description: The following in vitro assay is to determine the activity of the compounds of the present invention for inhibiting the proliferation of human erythroid leukemia cell line TF-1.
The activity is represented by the IC50 value, which can not only reflect the activity of a test compound for inhibiting JAK2 and JAK3 kinase, but can also reflect the selectivity of a test compound for JAK2 and JAK3 kinase.
The general procedures of the assay are given as follows: first, the TF-1 cells (purchased from ATCC, Catalog number: CRL 2003) were seeded in a 96-well cell culture plate at a suitable cell concentration (8000 cells/mL medium), and 10 ng/mL IL-4 (Invitrogen, Catalog Number: PHC0044) were added to each well. Then 10× serial concentration gradient of test compounds solutions (10000, 1000, 100, 10, 1 and 0.1 nM) were prepared, and then the 10× compound solutions prepared above were added to the 96-well cell culture plate containing IL-4. After the cell plates were cultured continuously for 72 hours, the activity of the test compounds for inhibiting the cell proliferation was determined by using a Cell Counting Kit-8 (purchased from Dojindo, Catalog Number: CK04). IC50 values were calculated from the data of the inhibition rates at various concentrations of the test compounds.

| IC50 [nM] | SMILES |
| --- | --- |
| 196 | CN(c1ncnc2[nH]ccc12)[C@@H]1C[C@@H]2CN(C(=O)OC(C)(C)C)C[C@]2(C)C1 (racemic) [Example 1, (3aR,5R,6aS/3aS,5S,6aR)-tert-butyl-3a-methyl-5-(methyl(7H-pyrrolo[2,3-d]pyrimidin-4-yl)amino)hexahydro cyclopenta[c]pyrrole-2(1H)-carboxylate] |
| 133 | CN(c1ncnc2[nH]ccc12)[C@H]1C[C@@H]2CN(C(=O)OC(C)(C)C)C[C@@H]2C1 [Example 5, (3aR,5S,6aS)-tert-Butyl 5-(methyl(7H-pyrrolo[2,3-d]pyrimidin-4-yl)amino)hexahydro cyclopenta[c]pyrrole-2(1H)-carboxylate] |
| 530 | CN(c1ncnc2[nH]ccc12)[C@H]1C[C@@H]2CN(C(=O)CC#N)C[C@@H]2C1 [Example 8, 3-((3 aR,5S,6aS)-5-(Methyl(7H-pyrrolo[2,3-d]pyrimidin-4-yl)amino)hexahydrocyclopenta[c]pyrrol-2(1H)-yl)-3-oxopropanenitrile] |
| 507 | CC(=O)N1C[C@H]2C[C@H](N(C)c3ncnc4[nH]ccc34)C[C@H]2C1 [Example 11, 1-((3aR,5S,6aS)-5-(Methyl(7H-pyrrolo[2,3-d]pyrimidin-4-yl)amino)hexahydrocyclopenta[c]pyrrol-2(1H)-yl)ethanone] |
| 419 | CN(c1ncnc2[nH]ccc12)C1C[C@@H]2CCN(C(=O)CC#N)C[C@@H]2C1 (stereo partly drawn) [Example 39, 3-((4aS,7aR)-6-(Methyl(7H-pyrrolo[2,3-d]pyrimidin-4-yl)amino)hexahydro-1H-cyclopenta[c]pyridin-2(3H,4H,4aH,5H,6H,7H,7aH)-yl)-3-oxopropanenitrile] |
| 507 | Cc1noc(N2C[C@H]3C[C@H](N(C)c4ncnc5[nH]ccc45)C[C@H]3C2)n1 [Example 61, N-methyl-N-((3aR,5S,6aS)-2-(3-methyl-1,2,4-oxadiazol-5-yl)octahydrocyclopenta[c]pyrrol-5-yl)-7H-pyrrolo[2,3-d] pyrimidin-4-amine] |
| 14 | CN(c1ncnc2[nH]ccc12)[C@H]1C[C@@H]2CN(C(=O)Nc3nc(C4CC4)ns3)C[C@@H]2C1 [Example 125, (3aR,5S,6aS)-N-(3-cyclopropyl-1,2,4-thiadiazol-5-yl)-5-(methyl(7H-pyrrolo[2,3-d]pyrimidin-4-yl)amino) hexahydrocyclopenta [c]pyrrole-2(1H)-carboxamide] |
| 539 | CN(c1ncnc2[nH]c(F)cc12)[C@H]1C[C@@H]2CN(C(=O)CO)C[C@@H]2C1 [Example 129, 1-((3aR,5S,6aS)-5-((6-fluoro-7H-pyrrolo[2,3-d]pyrimidin-4-yl)(methyl)amino)hexahydrocyclopenta[c]pyrrol-2(1H)-yl)-2-hydroxyethanone] |

same assay, conditions: TF-1, 72 h, 10 ng/mL IL-4, 72 hours

| IC50 [nM] | SMILES |
| --- | --- |
| 457 | CN(c1ncnc2[nH]ccc12)[C@H]1C[C@@H]2CN(C(=O)CO)C[C@@H]2C1 [Example 6, 2-Hydroxy-1-((3aR,5S,6aS)-5-(methyl(7H-pyrrolo[2,3-d]pyrimidin-4-yl)amino)hexahydrocyclopenta[c]pyrrol-2(1H)-yl)ethanone] |
